The values that follow come from patent US20060287316A1, “METHOD FOR IMPROVING PHARMACOKINETICS OF PROTEASE INHIBITORS AND PROTEASE INHIBITOR PRECURSORS” (priority 2005, published 2006).

The CC50 is the concentration that lowers cell viability or growth by half. As a reminder, the solubility is the concentration that dissolves in the medium under given conditions. A lower solubility goes with little dissolved substance.

In brackets after ≈: the same amount, converted by molar mass.

Data set [1] can be described thus: Cytotoxicity in the same cell culture system. It is filed as cell-based. As to conditions: human, MT4 cells. As to the method: Cytotoxicity of PL-100 and other P is was evaluated in the same cell culture system. The selectivity index (SI) is the ratio of cytotoxicity (CC50) to antiviral activity (EC50). The selective index is similar to the therapeutic index but relates to in vitro studies.

Data set [2] in a line: Water solubility. It is filed as physicochemical. As to conditions: water, pH 7.5, aqueous buffer.

Compound `COC(=O)N[C@H](C(=O)NCCCC[C@@H](CO)N(CC(C)C)S(=O)(=O)c1ccc(N)cc1)C(c1ccccc1)c1ccccc1` [PL-100, (1S,5S)-(1-{5-[(4-amino-benzenesulfonyl)-isobutyl-amino]-6-hydroxy-hexylcarbamoyl}-2,2-diphenyl-ethyl)-carbamic acid methyl ester] displayed a cytotoxic concentration (CC50) in data set [1] of 33 µM. Moreover, the solubility in data set [2] is 79 µg/mL (≈ 126 µM).
